Measured values reported in patent EP3097904A1, “DEPIGMENTING AGENTS TO LIGHTEN THE SKIN” (priority 2015, dated 2016).

What was measured:
[1] = system: normal murine melanocytes; test: Whitening effect on melanocyte cell pellet (photograph); type: cell-based; conditions: umbelliprenin 40 µM, 48 hours (Figure 7)
Method: Normal murine melanocytes were seeded and treated for 48 hours with umbelliprenin (40 µM) or carrier solvent (DMSO). […] Cells pellet was washed with phosphate buffer saline, centrifuged and the supernatant was discarded. Cell pellets were then photographed.

[2] = system: melanogenic genes (Tyrosinase, Mitf, TRP-1 and TRP-2); test: Expression of genes encoding melanogenic proteins (RT-qPCR); type: cell-based, murine; conditions: 48 hours; PBPE 20 µM, tesmilifene 10 µM, umbelliprenin 40 µM (Figure 8)
Method: We then performed RNA extraction. We added Trizol® (1 ml) on treated cells. After incubation (5 minutes at room temperature), we transferred the cells suspension into Eppendorf vial. Chloroform (200 µl at 4°C) was added, the mixture was manually stirred for 15 seconds, incubated for 5 minutes at room temperature and then centrifuged at 16000 g for 10 minutes at 4°C. Aqueous colorless layer was collected and isopropanol (500 µL at -20°C) was added. The mixture was manually stirred for 15 seconds, incubated for 15 minutes at room temperature and the centrifuged at 16200 g for 10 minutes at 4°C. The supernatant was discarded and the precipitate was washed with 1 mL of EtOH/H2O (3/1) at -20°C. The mixture was centrifuged at 16000 g for 10 minutes at 4°C, the supernatant discarded and the pellet was allowed to dry for 10 minutes at room temperature. The pellet was dissolved in RNAse-free water (30 µL). The amount and purity of RNA was determined by measuring the absorbance at 230, 260 and 280 nm with a nanodrop ND-1000 spectrophotometer (Thermo Scientific) according to the manufacturer's instructions.
We then performed RT-qPCR experiment. We prepared a mixture containing RNA (1 µg), reverse transcriptase (1 µL), the reaction mixture « iScript®5x » (4 µL) and RNAse-free water (qsp 20 µl). The mixture was vortexed, centrifuged for few seconds and then introduced into a thermocycler. Reverse transcription was performed using the following program : 5 min at 25°C, 30 min at 42°C and then 5 min at 85°C. Eppendorf vial was maintained at 4°C until the beginning of the qPCR experiment. We then examined the expression of melanogenic genes (Tyrosinase, Mitf, TRP-1 and TRP-2) and housekeeping genes (glyceraldehyde 3-phosphate dehydrogenase and Cyclophiline A1) by qPCR. For this purpose, cDNA was diluted with RNAse-free water (180 µL) and then we prepared a mixture containing: primers, Syber Green® and RNAse-free water. We mixed in a 96-well plate cDNA (5 µL) and the mixture (20 µL). […]

[3] = system: normal murine melanocytes treated with alpha melanocyte stimulating hormone (α-MSH); test: Melanin content in melanocytes treated with α-MSH; type: cell-based; conditions: 48 hours, α-MSH 100 nM; PBPE 20 µM, tesmilifene 10 µM, umbelliprenin 40 µM (Figure 3)
Method: (§1) Normal murine melanocytes were seeded and treated for 48 hours with increasing doses of umbelliprenin, 100µM of kojic acid (KA) or carrier solvent (DMSO). […] The cell pellet was washed twice with phosphate buffer saline, transferred in an Eppendorf vial and centrifuged at 5000 g for 5 minutes at 4°C. The supernatant was discarded. 200 µL of water and 1 mL of EtOH/Ether (1/1) were added to precipitate melanin. The mixture was incubated for 15 minutes at room temperature, centrifuged at 5000 g for 5 minutes and the supernatant was discarded. The precipitate was solubilized by 300 µL of a mixture of aqueous sodium hydroxide (1 M)/DMSO 90/10 after heating at 80°C for 1 hour. The absorbance was measured at 405 nm. The melanin content was expressed as a percentage of control (=100%).

Tyrosinase = Tyrosinase activity in lysates of treated melanocytes (L-DOPA oxidation); type: cell-based, murine; conditions: 48 hours; PBPE 20 µM, tesmilifene 10 µM, umbelliprenin 40 µM; cell lysate, percentage of control (Figure 6)
Method: Tyrosinase activity was measured using a previously reported procedure (Ando H, J. Lipid Res., 1999, 40, p. 1312). […] The cell pellet was washed twice with phosphate buffer saline, transferred in an Eppendorf vial and centrifuged at 5000 g for 5 minutes at 4°C. The supernatant was discarded. Cell lysis was performed with an aqueous solution of sodium deoxycholate 0.5% (1 mL per cell pellet). The suspension was incubated at 0°C for 15 minutes and then 3 mL of a freshly prepared solution of L-DOPA (0.1% w/w) in phosphate buffer at 0.1 M (pH 6.8) was added to the cell lysate. The mixture was incubated at 37°C for 10 min. Tyrosinase activity was measured with a spectrophotometer to quantify the oxidation of L-DOPA to DOPAchrome. The absorbance was measured at 475 nm. The tyrosinase activity was expressed as a percentage of control (=100%). Control corresponds to the tyrosinase activity measured in the cell lysate from normal murine melanocytes treated with carrier solvent. Melanin content of treated murine melanocytes was also measured as described in example 4.

[4] = system: normal murine melanocytes; test: Melanin content in normal murine melanocytes (basal); type: cell-based; conditions: 48 hours; for melanin content: increasing doses, expressed as percentage of control (Figures 1, 2)
Method: as §1
Normal murine melanocytes were seeded and treated for 48 hours with increasing doses of PBPE, tesmilifene (Tes) or carrier solvent (ethanol).
Normal murine melanocytes were seeded and treated for 48 hours with fixed doses of PBPE, tesmilifene, umbelliprenin or a combination of those, or carrier solvent (DMSO for umbelliprenin, ethanol for tesmilifene or PBPE and EtOH/DMSO 1/1 for the combination).
The cell pellet was washed twice with phosphate buffer saline, transferred in an Eppendorf vial and centrifuged at 5000 g for 5 minutes at 4°C. The supernatant was discarded. Cell lysis was performed with an aqueous solution of sodium deoxycholate 0.5% (1 mL per cell pellet). The suspension was incubated at 0°C for 15 minutes and then 3 mL of a freshly prepared solution of L-DOPA (0.1% w/w) in phosphate buffer at 0.1 M (pH 6.8) was added to the cell lysate. The mixture was incubated at 37°C for 10 min. Tyrosinase activity was measured with a spectrophotometer to quantify the oxidation of L-DOPA to DOPAchrome. The absorbance was measured at 475 nm. The tyrosinase activity was expressed as a percentage of control (=100%). Control corresponds to the tyrosinase activity measured in the cell lysate from normal murine melanocytes treated with carrier solvent.

[5] = system: normal murine melanocytes exposed to ultraviolet (UV-B) irradiation; test: Melanin content in melanocytes exposed to UV-B irradiation; type: cell-based; conditions: UV-B 20 mJ/cm^2; PBPE 20 µM, tesmilifene 10 µM, umbelliprenin 40 µM (Figure 4)
Method: as §1

[6] = system: normal murine melanocytes; test: Cytotoxicity, trypan blue cell viability; conditions: 24, 48 and 72 hours; PBPE 20 µM, tesmilifene 10 µM, umbelliprenin 40 µM (Figure 9)
Method: Normal murine melanocytes were seeded and treated for 24, 48 and 72 hours with PBPE (20 µM), tesmilifene (10 µM), umbelliprenin (40 µM) or carrier solvent (DMSO for umbelliprenin and ethanol for tesmilifene or PBPE). Cells were detached by trypsinization, collected in phosphate buffer saline and centrifuged at 1500 rpm for 5 minutes at 4°C. Cells pellets were resuspended in the trypan blue solution (0.25%, w/v in PBS) and counted in a Malassez cell under a light microscope. The percentage of cell viability was calculated using the following formula: % cell viability = [1-(blue cells/total cells)] x 100 [formula]

[7] = PBPE 20 µM, tesmilifene 10 µM, umbelliprenin 40 µM vs kojic acid 100 µM (Figure 6)

expression of melanogenic genes [2]	tyrosinase activity (Tyrosinase)	SMILES	appearance of melanocytes (cell pellet) versus carrier solvent [1]	melanin content in presence of α-MSH [3]	melanin content [4]	diminution of melanin content compared with kojic acid [4, 7]	diminution of melanin content compared with kojic acid ([4]; increasing doses of umbelliprenin vs 100µM kojic acid (Figure 1))	melanin content after UV-B irradiation [5]	cell viability [6]
significantly repressed	decrease tyrosinase activity levels	CC(C)=CCC/C(C)=C/CC/C(C)=C/COc1ccc2ccc(=O)oc2c1 [umbelliprenin]	much lighter	inhibits the melanogenic effect of α-MSH	significantly decreases melanin content in a dose dependent manner	higher	higher	inhibits the melanogenic effect of UV-B	
this effect was not observed	decrease tyrosinase activity levels	CCN(CC)CCOc1ccc(Cc2ccccc2)cc1 [tesmilifene]		inhibits the melanogenic effect of α-MSH	significantly decrease melanin content in a dose dependent manner	higher		inhibits the melanogenic effect of UV-B	

SMILES	expression of melanogenic genes [2]	tyrosinase activity (Tyrosinase)	appearance of melanocytes (cell pellet) versus carrier solvent [1]	melanin content in presence of α-MSH [3]	melanin content [4]	diminution of melanin content compared with kojic acid [4, 7]	diminution of melanin content compared with kojic acid ([4]; increasing doses of umbelliprenin vs 100µM kojic acid (Figure 1))	melanin content after UV-B irradiation [5]	cell viability [6]
c1ccc(Cc2ccc(OCCN3CCCC3)cc2)cc1 [PBPE]	this effect was not observed	decrease tyrosinase activity levels		inhibits the melanogenic effect of α-MSH	significantly decrease melanin content in a dose dependent manner	higher		inhibits the melanogenic effect of UV-B	no significant impact
